# Source: patent US8795632B2, “Disease animal model for chronic pain” (Astellas Pharma Inc., priority 2008, dated 2014)
# Assays:
# rats = conditions: single intraperitoneal administration of reserpine in rats; Non-patent Reference 13; cited from earlier work
# Sprague-Dawley rats [1] = assay: Cold sensitivity (acetone method) after reserpine single administration; type: in vivo, rat; conditions: reserpine 3 mg/kg single s.c.
# Procedure: Measurement of cold sensitivity was carried out in accordance with the method of Choi et al. (Choi et al., Pain, 59, 369-376, 1994). After adaptation of each rat to a wire mesh bottom cage for measurement, 50 μl of acetone was sprayed to the plantar surface of the right hind paw of the rat using a syringe for insulin injection. The number of reactions of the right hind paw (flinching, lifting and leg licking) occurred during 1 minute just after the spraying was measured and used as the index of cold sensitivity. At each point of time of the measurement, the acetone spraying was carried out 3 times at 5 minute intervals and the average was used as the measured vale. […]
# Influences of the reserpine single administration upon the muscle pressure pain threshold value, skin pain sensation threshold value, cold sensitivity and heat sensitivity were examined in accordance with the following protocol. […] The muscle pressure pain threshold value, skin pain sensation threshold value, cold sensitivity and heat sensitivity before the reserpine treatment (base lines) were measured and then they were divided into a solvent (0.5% acetic acid aqueous solution) group and a reserpine (3 mg/kg) group (the number of animals per group was 6). […]
# (§1) All of the measured values were expressed as average value±standard error. […]
# [2] = system: dopamine, norepinephrine, serotonin, DOPAC, MHPG and 5-HIAA in the spinal cord, thalamus and prefrontal cortex; assay: Amounts of dopamine, norepinephrine, serotonin, DOPAC, MHPG and 5-HIAA in spinal cord, thalamus and prefrontal cortex after reserpine single administration (HPLC-ECD); type: in vivo, rat; conditions: reserpine 3 mg/kg single s.c.
# Procedure: Male Sprague-Dawley rats (7 weeks old, Japan SLC, Hamamatsu, Japan) were used as the animal.
# A total of 72 rats were divided into 12 test schedules (collection of samples before the administration, 2, 4, 8 and 24 hours after the administration and 2, 3, 5, 7, 10, 14 and 21 days thereafter) and further divided each of them into a vehicle (0.5% acetic acid aqueous solution) administration group and a reserpine 3 mg/kg administration group, to 3 rats per group. As shown in Example 5, the vehicle or 3 mg/kg of reserpine was administered subcutaneously only once to each rat, and the brain and spinal cord were quickly collected after 2, 4, 8 or 24 hours or 2, 3, 5, 7, 10, 14 or 21 days of the administration. The thalamus and prefrontal cortex were separated from the brain on an ice-cold dish. Regarding the sampling before administration, samples were collected before beginning of the administration of the vehicle or reserpine. The collected samples were quickly frozen and stored at −80° C. until their use in the measurements. On the day of the measurement, tissues of respective samples were subjected to wet weight measurement, homogenized in 0.2 M perchloric acid/0.1 mM EDTA-2Na solution using an ultrasonic homogenizer. After centrifugation at 15,000 g and at 4° C. for 15 minutes, the supernatant was adjusted to pH 3.5 using sodium acetate and filtered using a filter. Amounts of dopamine, norepinephrine, serotonin, DOPAC, MHPG and 5-HIAA in these samples were measured using a high performance liquid chromatography (column: SC-50DS 3.0, 150 mm, Eicom Co., Ltd., Kyoto, Japan, mobile phase composition: 0.1 M sodium acetate buffer, 0.1 M citrate buffer, pH 3.5, 5 mg/l EDTA-2Na, 200 mg/l sodium octane sulfonic acid, 16% methanol) and an electrochemical detector (ECD-300, Eicom Co., Ltd., Kyoto, Japan). The measurement was carried out under conditions of flow rate 0.5 ml/min, applied voltage 750 mV and 25° C. Amounts of dopamine, norepinephrine, serotonin, DOPAC, MHPG and 5-HIAA in the samples were quantified by comparing sample peak areas of respective standards measured on the same day of the sample measurement.
# All of the measured values were expressed as average value±standard error in the graphs, and unit of the measured values was set to ng/g tissue wet weight. Statistical difference of the measured values between the reserpine administration group and the vehicle administration group in each test schedule was carried out by the two-way analysis of variance and the Bonferroni method. Probability value (P) of less than 5% was judged as statistically significant (P<0.05 was expressed as * in the graphs).
# Sprague-Dawley rats [3] = assay: Skin pain sensation threshold value after reserpine single administration; type: in vivo, rat; conditions: reserpine 3 mg/kg single s.c.
# Procedure: Measurement of the skin pain sensation threshold value was carried out in the same manner as in Example 1. That is, this was measured using a series of von Frey filaments having different diameter which can add a constant pressure. […] The von Frey filament was applied using the up and down method. That is, by firstly applying a filament of about middle diameter, a filament having one rank smaller diameter was applied when the withdrawal reaction was observed or a filament having one rank larger diameter was applied when the withdrawal reaction was not observed. The skin pain sensation threshold value at each point of time was calculated as a hind paw withdrawal reaction threshold value (g).
# (§2) Influences of the reserpine single administration upon the muscle pressure pain threshold value, skin pain sensation threshold value, cold sensitivity and heat sensitivity were examined in accordance with the following protocol. A total of 12 male rats were used. The muscle pressure pain threshold value, skin pain sensation threshold value, cold sensitivity and heat sensitivity before the reserpine treatment (base lines) were measured and then they were divided into a solvent (0.5% acetic acid aqueous solution) group and a reserpine (3 mg/kg) group (the number of animals per group was 6). […] The muscle pressure pain threshold value, skin pain sensation threshold value, cold sensitivity and heat sensitivity of each rat were measured at the points of measurement time of acute phase after administration of the solvent or reserpine (2, 4, 8 and 24 hours) and chronic phase (2, 3, 5, 7, 10, 14 and 21 days).
# All of the measured values were expressed as average value±standard error. Statistical significance test of the measured values between the reserpine administration groups and the solvent administration group at each point of time was carried out by the two-way analysis of variance and the Bonferroni method. Probability value (P) of less than 5% was judged as statistically significant (P<0.05 was expressed as * in the graphs).
# Sprague-Dawley rats [4] = assay: Muscle pressure pain threshold value after reserpine single administration; type: in vivo, rat; conditions: reserpine 3 mg/kg single s.c.
# Procedure: Male Sprague-Dawley rats (Japan SLC, Hamamatsu, Japan) were used. Measurement of muscle pressure pain threshold value was carried out in the same manner as in Example 1. That is, a pressure stimulus of gradually increasing to 250 g at the maximum was added to the right hind leg gastrocnemius muscle of each rat. […] The measurement was carried out 3 times at each point of time of the measurement, and the average was used as the measurement value.
# as §2, with “A total of 12 male rats were used.” left out
# as §1
# [5] = after 2, 4, 8 and 24 hours and 2, 3, 5, 7, 10, 14 and 21 days
smiles,measurement,setting,value
COC(=O)[C@H]1[C@H]2C[C@@H]3c4[nH]c5cc(OC)ccc5c4CCN3C[C@H]2C[C@@H](OC(=O)c2cc(OC)c(OC)c(OC)c2)[C@@H]1OC [reserpine],sensitivity to thermal stimulation,rats,causes hypersensitivity to thermal stimulation
same,time within which hypersensitivity to thermal stimulation disappears,rats,≤ 24 h
same,cold sensitivity: number of reactions,"Sprague-Dawley rats [1]; after 2, 3, 5, 7 and 10 days",significantly increased
same,cold sensitivity: number of reactions,Sprague-Dawley rats [1]; within 24 hours after administration,did not show significant increase
same,amount of DOPAC in the prefrontal cortex,"[2]; after 2, 3, 5, 7, 10 and 14 days",significantly reduced
same,amount of 5-HIAA in the thalamus,"[2]; after 2, 4, 8 and 24 hours",significantly increased
same,amount of DOPAC in the spinal cord,"[2]; after 2, 4, 8 and 24 hours",significantly increased
same,amount of dopamine in the spinal cord,[2]; [5],significantly reduced
same,amount of dopamine in the thalamus,[2]; [5],significantly reduced
same,amount of norepinephrine in the prefrontal cortex,[2]; [5],significantly reduced
same,amount of norepinephrine in the spinal cord,[2]; [5],significantly reduced
same,amount of norepinephrine in the thalamus,[2]; [5],significantly reduced
same,amount of serotonin in the spinal cord,[2]; [5],significantly reduced
same,amount of dopamine in the prefrontal cortex,"[2]; after 2, 4, 8 and 24 hours and 2, 3, 5, 7, 10 and 14 days",significantly reduced
same,amount of serotonin in the prefrontal cortex,"[2]; after 2, 4, 8 and 24 hours and 2, 3, 5, 7 and 10 days",significantly reduced
same,amount of 5-HIAA in the spinal cord,"[2]; after 4, 8, 24 hours and 2 days",significantly increased
same,amount of serotonin in the thalamus,"[2]; after 8 and 24 hours and 3, 5, 7 and 10 days",significantly reduced
same,amount of MHPG in the prefrontal cortex,[2]; after 4 hours and 7 days,significantly reduced
same,amount of MHPG in the spinal cord,[2]; after 4 hours and 7 days,significantly reduced
same,amount of 5-HIAA in the prefrontal cortex,"[2]; after 8 hours and 2, 3, 5, 7, 10, 14 and 21 days",significantly reduced
same,amount of DOPAC in the spinal cord,[2]; after 2 days and later,did not significantly change
same,amount of DOPAC in the thalamus,[2]; all time points,did not significantly change
same,amount of MHPG in the thalamus,[2]; all time points,did not significantly change
same,amount of 5-HIAA in the thalamus,[2]; in and after 2 days,no significant difference
same,amount of 5-HIAA in the spinal cord,[2]; in and after 3 days,did not significantly change
same,amount of DOPAC in the prefrontal cortex,[2]; within 24 hours after the administration,did not significantly change
same,time after administration at which transient acute-phase tactile allodynia recovers,Sprague-Dawley rats [3],4 h
same,skin pain sensation threshold value,"Sprague-Dawley rats [3]; 2, 3, 5, 7, 10, 14 and 21 days after administration",significantly reduced
same,skin pain sensation threshold value,Sprague-Dawley rats [3]; after 2 hours,significantly reduced
same,muscle pressure pain threshold value,"Sprague-Dawley rats [4]; after 2, 3, 5, 7 and 10 days",significantly reduced
same,muscle pressure pain threshold value,"Sprague-Dawley rats [4]; after 2, 4, 8 and 24 hours",significantly increased
